Patent US10155985B2, “Evaluation of eosinophilic esophagitis” (CHILDREN'S HOSPITAL MEDICAL CENTER, priority 2004, dated 2018)

B1: SEQ_ID_#58 (nucleic acid, listed as Homo sapiens)
DNA: ATGAAGGCCAACTACAGCGCAGAGGAGCGCTTTCTCCTGCTGGGTTTCTCCGACTGGCCTTCCCTGCAGCCGGTCCTCTTCGCCCTTGTCCTCCTGTGCTACCTCCTGACCTTGACGGGCAACTCGGCGCTGGTGCTGCTGGCGGTGCGCGACCCGCGCCTGCACACGCCCATGTACTACTTCCTCTGCCACCTGGCCTTGGTAGACGCGGGCTTCACTACTAGCGTGGTGCCGCCGCTGCTGGCCAACCTGCGCGGACCAGCGCTCTGGCTGCCGCGCAGCCACTGCACGGCCCAGCTGTGCGCATCGCTGGCTCTGGGTTCCGCCGAATGCGTCCTCCTGGCGGTGATGGCTCTGGACCGCGCGGCCGCAGTGTGCCGCCCGCTGCGCTATGCGGGGCTCGTCTCCCCGCGCCTATGTCGCACGCTGGCCAGCGCCTCCTGGCTAAGTGGCCTCACCAACTCGGTTGCGCAAACCGCGCTCCTGGCTGAGCGGCCGCTGTGCGCGCCCCGCCTGCTGGACCACTTCATCTGTGAGCTGCCGGCGTTGCTCAAGCTGGCCTGCGGAGGCGACGGAGACACTACCGAGAACCAGATGTTCGCCGCCCGCGTGGTCATCCTGCTGCTGCCGTTTGCCGTCATCCTGGCCTCCTACGGTGCCGTGGCCCGAGCTGTCTGTTGCATGCGGTTCAGCGGAGGCCGGAGGAGGGCGGTGGGCACGTGTGGGTCCCACCTGACAGCCGTCTGCCTGTTCTACGGCTCGGCCATCTACACCTACCTGCAGCCCGCGCAGCGCTACAACCAGGCACGGGGCAAGTTCGTATCGCTCTTCTACACCGTGGTCACACCTGCTCTCAACCCGCTCATCTACACCCTCAGGAATAAGAAAGTGAAGGGGGCAGCGAGGAGGCTGCTGCGGAGTCTGGGGAGAGGCCAGGCTGGGCAGTGA

Each molecule was assayed on EE transcriptome (assay: Genome-wide microarray transcript profiling of esophageal biopsies, EE patients vs normal individuals (EE transcriptome)). Settings: transcript level in esophageal biopsies of EE patients (n=76) compared to normal individuals (n=13); Affymetrix Human Genome U133 plus 2; p<0.01.
Method: Esophageal tissue obtained from patients previously diagnosed with EE was analyzed. Diagnosis was based on analysis of excised tissue from endoscopic biopsy. Tissues from patients with EE, as well as patients not having EE (controls) were subjected to genome-wide microarray transcript profiling (Affymetrix GeneChip). All work was performed at the Core facility at Children's Hospital Medical Center (Cincinnati Ohio).
Briefly, RNA quality was first assessed using the Agilent bioanaiyzer (Agilent Technologies, Palo Alto Calif.). Only mRNA having a ratio of 28S/18S between 1.3 and 2 were subsequently used. RNA was converted to cDNA with Superscript choice for cDNA synthesis (Invitrogen, Carlsbad Calif.) and subsequently converted to biotinylated cRNA with Enzo High Yield RNA Transcript labeling kit (Enzo Diagnostics, Farmingdale N.Y.). After hybridization to the GeneChip (Affymetrix, Santa Clara Calif.), the chips were automatically washed and stained with streptavidin-phycoerythrin using a fluidics system. The chips were scanned with a Hewlett Packard GeneArray Scanner. Over 30,000 unique genes were screened.
Levels of gene transcripts were determined from data image files, using algorithms in the Microarray Analysis Suite software (Affymetrix). Levels from chip to chip were compared by global scaling. Each gene was typically represented by a probe set of 16 to 20 probe pairs. Each probe pair consisted of a perfect match oligonucleotide and a mismatch oligonucleotide that contained a one base mismatch at a central position. Two measures of gene expression were used, absolute call and average difference. Absolute call is a qualitative measure in which each gene is assigned a call of present, marginal or absent, based on the hybridization of the RNA to the probe set. Average difference is a quantitative measure of the level of gene expression, calculated by taking the difference between […] of every probe pair and averaging the differences over the entire probe set. Data were normalized and an EE transcriptome gene list was created with results having p<0.01 (Welch t-test with or without false rate discovery) and ≥1.5-fold change.
For evaluation of EE using clinical and/or physical assessment, biopsy tissues (obtained from the distal esophagus during routine endoscopy) were submerged in formalin for routine pathological analysis with hematoxylin and eosin staining. Diagnosis was established based on the maximum eosinophil count per high power field (hpf) and basal layer expansion according to method known in the art (e.g., established criteria in Rothenberg et al., Pathogenesis and clinical features of eosinophilic esophagitis. J Allergy Clin Immunol 108 (2001) 891; Attwood et al., Esophageal eosinophilia with dysphagia. A distinct clinicopathologic syndrome. Dig Dis Sci 38 (1993)109; Fox et al., Eosinophilic esophagitis: its not just kid's stuff. Gastrointest Endosc 56 (2002) 26, each of which is expressly incorporated by reference herein in its entirety. Normal individuals (NL), n=13, served as a control and were defined as having 0 eosinophils/hpf and no basal layer expansion. Individuals with EE (n=76) were defined as having >24 eosinophils/hpf and extensive basal layer hyperplasia (expansion to about >⅓ of epithelium).
The data were analyzed by cluster analysis and ordered (standard correlation (A) and distance (B)) using Genespring software. […] Each column represented a separate individual and each line a gene. RNA from each patient was subjected to chip analysis using Affymetrix Human Genome U133 GeneChip plus 2.
SH2D1B was tested, and the “Fold Change” value was 3.098.
With SGK the “Fold Change” value was 3.139.
In the case of SERPINB4, the “Fold Change” value is reported as 4.328.
In the case of SDPR, the “Fold Change” value is reported as 2.293.
SCUBE2 was tested, and the “Fold Change” value was 5.502.
With ACSL5 the “Fold Change” value was 2.745.
For SH3RF2, the “Fold Change” value was 3.122.
In the case of SCIN, the “Fold Change” value is reported as 3.17.
With ADAM28 the “Fold Change” value was 2.613.
SCUBE1 was tested, and the “Fold Change” value was 2.689.
For SECTM1, the “Fold Change” value was 3.282.
SE57-1 was tested, and the “Fold Change” value was 4.055.
In the case of SFRP1, the “Fold Change” value is reported as 4.098.
With SIGLEC6 the “Fold Change” value was 3.199.
With SEPX1 the “Fold Change” value was 2.611.
For SIDT1, the “Fold Change” value was 4.822.
In the case of SEC6L1, the “Fold Change” value is reported as 8.878.
For SLC15A1, the “Fold Change” value was 2.792.
In the case of SAMSN1, the “Fold Change” value is reported as 7.119.
With B1 the “Fold Change” value was 4.822.

Same assay, conditions: transcript level in esophageal biopsies of EE patients compared to normal individuals (NL); Affymetrix Human Genome U133 plus 2; p<0.01; >1 up-regulated, <1 down-regulated
With SF3B3 the “Fold Change” value was 0.655.
In the case of SAMD9, the “Fold Change” value is reported as 0.634.
For ABHD6, the “Fold Change” value was 0.609.
In the case of ADAMTS17, the “Fold Change” value is reported as 0.631.
For SFRS5, the “Fold Change” value was 0.666.
With AADAT the “Fold Change” value was 0.608.
ACOX2 was tested, and the “Fold Change” value was 0.592.
In the case of SGPL1, the “Fold Change” value is reported as 0.63.
ADAR was tested, and the “Fold Change” value was 1.509.
In the case of SH3BP5, the “Fold Change” value is reported as 0.622.
In the case of ABCC1, the “Fold Change” value is reported as 0.622.
In the case of SCYL2, the “Fold Change” value is reported as 1.507.
With SCEL the “Fold Change” value was 0.631.
SEC24C was tested, and the “Fold Change” value was 0.647.
With ACADL the “Fold Change” value was 0.588.
In the case of SC5DL, the “Fold Change” value is reported as 0.6.
For 13CDNA73, the “Fold Change” value was 0.632.
